In patent US11642392B2, “Therapeutic agent of uremia containing alarin as the main ingredient” (JU TIDE CO., LTD., priority 2017, dated 2023):

Legend:
[1] = tested on: Cisplatin-induced uremia in the Sprague-Dawley rat model; settings: single dose of 10 μg/1 mL/head and 20 μg/1 mL/head IV, vs control group of excipient
Protocol: (§1) The intravenous administration was done by fixing an animal into a correction frame, and slowly injecting at a rate of within 1 mL/min through the micro vein using a syringe equipped with 26 gauges needle. The intraperitoneal administration was performed by fixing the animal by a transdermal skin fixation method and intraperitoneally injecting using a syringe equipped with 26 gauges needle.
Serum obtained from the centrifugation was tested for blood urea nitrogen (BUN) and […] (CRE) using a blood biochemical analyzer (7180 Hitachi, Japan).

[2] = tested on: Cisplatin-induced uremia in the Sprague-Dawley rat model
Protocol: as §1
Finally, animals were inhaled with ether on an necropsy day to anesthetize and euthanize, and kidneys were extracted and fixed in a 10% neutral buffered formalin solution, and the fixed tissues were cut, dehydrated, paraffin embedded and hematoxylin & eosin stained to make a specimens for histopathological examination after these histological treatment. And then, the obtained specimen is subjected to speculum using an optical microscope (Olympus BX53, Japan).

For “alarin (human) trifluoroacetate salt [test substance]”, the blood biochemical level [1] was “tendency to improve”, the “histopathological examination results, lesion level” value ([2]; 10 and 20 μg/1 mL/head IV single dose, across doses) was “dose-related change trend and significant changes in lesion level” and the “level of lesion (histopathological examination of kidney)” value ([2]; high dose group (20 μg/1 mL/head IV, single dose), necropsy Day 7, H&E, vs control group) was “significantly lower”.
